Like-named read-outs stand apart in the source and are kept apart here.
Assays:
[1] = Shake-flask solubility in n-hexane and dissolution thermodynamics; type: physicochemical; conditions: for Molar solubility S2 × 10^3 in n-Hexane: value = S2 × 10^3
Description: (§1) The solubility of the investigated drugs in 1-octanol and n-hexane was determined by the shake-flask technique. To this end, the glass vials containing the solutions with the excess amount of the compound were placed in an air thermostat and stirred at a predetermined temperature for no less than 24 h (equilibrium state). After this, the suspensions were left for 5 h or more to precipitate the undissolved drug and centrifuged (Biofuge pico, Thermo Electron LED GmbH, Langenselbold, Germany) at a predetermined temperature during 20 min (10,000 rpm). The aliquots of the clear solutions were taken and examined via a spectrophotometer (Cary-50 Varian, Palo Alto, CA, USA, Software Version 3.00 (339)). The molar concentrations of the compounds in the solvents were calculated using calibration curves at the appropriate wavelength characteristic for each substance. The experimental results were reported as an average of at least three replicated experiments with an accuracy of 2–4%. In order to evaluate the thermodynamic parameters of the IPN dissolution in 1-octanol and n-hexane, the molar solubility ( S2 ) was recalculated to the mole fraction ( X2 ) by the equation:(1) X2=M2S2/S2(M1−M2)+1000ρ, where M1 and M2 are the molar masses of IPN and organic solvent, respectively, and ρ (g∙cm^−3) is the density of the pure solvents. The linear functions describing the temperature dependences of the solubility within the temperature interval from 293.2 ± 0.5 K to 313.2 ± 0.5 K for both organic solvents were derived:(2) lnX2=A+B/T
(§2) The apparent solution enthalpies ΔHsol0 were determined by the van’t Hoff equation:(3) ∂(lnX2)/∂T=ΔHsol0/RT^2
(§3) The apparent dissolution Gibbs energies ( ΔGsol ) and entropies ( ΔSsol ) were calculated at a standard temperature of 298.2 K and 310.2 K:(4) ΔGsol298.2/310.2=−RT(lnX2298.2/310.2) (5) ΔGsol298.2/310.2=ΔHsol0−TΔSsol298.2/310.2 where R is the universal gas constant.

[2] = Thermodynamic functions of the hypothetical n-hexane → 1-octanol transferring; type: physicochemical
Description: as §3
The following conclusions can be derived from Table 3. The dissolution process is more favorable in 1-octanol as compared to n-hexane. In both solvents it is determined by the enthalpy, but the difference between the enthalpy and entropy contributions is not essential (especially in 1-octanol). The greater positive enthalpy term is a driving force of the unfavorable dissolution processes in these two solvents. A more than two-fold difference ΔHsol > TΔSsol exists in n-hexane, and a favorable positive entropy value is not enough to overlap the enthalpy one. From the dissolution thermodynamic functions, the hypothetical transfer n-hexane→1-octanol simulating the blood-brain penetration can be disclosed. As follows from Table 3, the transferring is favorable (negative ΔGtr value), in that the lower temperature facilitates the process. The hypothetical transition from n-hexane to 1-octanol is driven and determined by the negative enthalpy (~80%). A small negative entropy contribution— TΔStr indicates some ordering of the system upon the movement of the IPN molecules from n-hexane to 1-octanol.

[3] = Shake-flask solubility in 1-octanol and dissolution thermodynamics; type: physicochemical; conditions: for Molar solubility S2 × 10^1 in 1-Octanol: value = S2 × 10^1
Description: as §1, §2, §3

[4] = Membrane permeability in Franz diffusion cell; type: in vitro ADME; conditions: for Papp at 5 h: pH 7.4, PermeaPad barrier, read-out: permeability coefficient (Papp)
Description: Membrane permeability coefficients of the studied drugs were measured in the Franz diffusion cell of vertical type (PermeGear, Inc., Hellertown, PA, USA) with 7 mL/1 mL volumes of the donor and acceptor solutions through the reverse dialysis set up. The PermeaPad barrier (PHABIOC, Fritz-Souchon-Str.27 32339 Espelkamp Germany, www.innome.de) (0.785 cm^2 effective surface area) was mounted between the donor and acceptor chambers of the diffusion cell. The temperature was maintained at 310.2 ± 0.5 K throughout the experiment. Samples of 0.5 mL were withdrawn each 30 min from the acceptor solution and replaced with an equal amount of fresh buffer. Permeability experiments lasted over five hours in all cases. The solutions concentrations were analyzed via spectrophotometer (Spectramax 190; Molecular Devices Corporation, San Jose, CA, USA) in 96-well UV black plates (Costar) at a wavelength of 264 nm and 266 nm for IPN and INZ/iNAM, respectively. The dependences of the amount of the permeated drug over the surface area (dQ/A) on time (t) were plotted and flux (J) across the membrane was calculated by the equation:(11) J=dQ/A×dt The apparent permeability coefficients (Papp) were determined by normalizing the flux measured over the concentration of the drug in the donor compartment (C0) by the equation:(12) Papp=J/C0 Each permeability experiment was carried out in triplicate.
Similarly to the distribution, the permeability coefficients were obtained in the absence (for IPN, and iNAM) and in the presence of cyclodextrins (HP-β-CD and M-β-CD) (for IPN only) in the donor solution. The concentrations of cyclodextrins were 0.0115 M, 0.025 M and 0.035 M. The permeability coefficient for INZ through the PermeaPad barrier was determined in our previous investigation and taken in the present study for the sake of comparison.

[5] = Shake-flask solubility in n-hexane and dissolution thermodynamics; type: physicochemical; conditions: T 290.2 K; value = S2 × 10^3
[6] = Shake-flask solubility in 1-octanol and dissolution thermodynamics; type: physicochemical; conditions: T 290.2 K; value = S2 × 10^1

- Molar solubility S2 × 10^3 in n-Hexane ([1]; T 293.2 K): 0.83 ± 0.03 × 10^3 (M)
- Molar solubility S2 × 10^3 in n-Hexane ([1]; T 298.2 K): 1.07 ± 0.02 × 10^3 (M)
- Molar solubility S2 × 10^3 in n-Hexane ([1]; T 303.2 K): 1.42 ± 0.03 × 10^3 (M)
- Molar solubility S2 × 10^3 in n-Hexane ([1]; T 310.2 K): 2.03 ± 0.04 × 10^3 (M)
- TΔSsol298.2 ([1]; n-hexane, 298.2 K): 4.3 ± 0.19 kcal/mol
- ΔGsol298.2 ([1]; n-hexane, 298.2 K): 5.26 ± 0.096 kcal/mol
- ζHsol ([1]; n-hexane, 298.2 K (first value of cell)): 69.0%
- ΔHsol298.2/310.2 ([1]; n-hexane, 298.2 K and 310.2 K): 9.56 ± 0.22 kcal/mol
- TΔSsol310.2 ([1]; n-hexane, 310.2 K): 4.49 ± 0.19 kcal/mol
- ΔGsol310.2 ([1]; n-hexane, 310.2 K): 5.07 ± 0.096 kcal/mol
- ζHsol ([1]; n-hexane, 310.2 K (second value of cell)): 68.0%
- TΔStr298.2 ([2]; 298.2 K): -0.884 kcal/mol
- ΔGtr298.2 ([2]; 298.2 K): -3.78 kcal/mol
- ζHtr ([2]; 298.2 K (first value of cell)): 84.1%
- ΔHtr298.2/310.2 ([2]; 298.2 K and 310.2 K): -4.66 kcal/mol
- TΔStr310.2 ([2]; 310.2 K): -0.932 kcal/mol
- ΔGtr310.2 ([2]; 310.2 K): -3.73 kcal/mol
- ζHtr ([2]; 310.2 K (second value of cell)): 83.3%
- TΔSsol298.2 ([3]; 1-octanol, 298.2 K): 3.42 ± 0.096 kcal/mol
- ΔGsol298.2 ([3]; 1-octanol, 298.2 K): 1.48 ± 0.024 kcal/mol
- ζHsol ([3]; 1-octanol, 298.2 K (first value of cell)): 58.9%
- ΔHsol298.2/310.2 ([3]; 1-octanol, 298.2 K and 310.2 K): 4.9 ± 0.048 kcal/mol
- TΔSsol310.2 ([3]; 1-octanol, 310.2 K): 3.56 ± 0.096 kcal/mol
- ΔGsol310.2 ([3]; 1-octanol, 310.2 K): 1.34 ± 0.024 kcal/mol
- ζHsol ([3]; 1-octanol, 310.2 K (second value of cell)): 57.9%
- solubility higher in 1-octanol than in n-hexane ([3]; 310.2 K, ratio of molar solubilities): 338 fold
- Molar solubility S2 × 10^1 in 1-Octanol ([3]; T 293.2 K): 4.44 ± 0.09 × 10^1 (M)
- Molar solubility S2 × 10^1 in 1-Octanol ([3]; T 298.2 K): 5.06 ± 0.06 × 10^1 (M)
- Molar solubility S2 × 10^1 in 1-Octanol ([3]; T 303.2 K): 5.73 ± 0.11 × 10^1 (M)
- Molar solubility S2 × 10^1 in 1-Octanol ([3]; T 310.2 K): 6.86 ± 0.18 × 10^1 (M)
- steady penetrate rate - flux J∙10^4 ([4]; PermeaPad barrier, 310.2 K, pH 7.4, printed value = J × 10^4, cyclodextrin in donor solution as in the label): 1.25 ∙10^4 (μM∙cm‐2∙s‐1)
- Papp∙10^5 ([4]; PermeaPad barrier, 310.2 K, pH 7.4, value = Papp × 10^5, cyclodextrin in donor solution as in the label): 2.03±0.05 ∙10^5 (cm∙s‐1)
- Papp at 5 h ([4]; 310.2 K, without cyclodextrins): 20.3 ×10⁻⁶ cm/s
- Papp at 5 h ([4]; enhancement in the presence of M-β-CD in donor solution (highest value reached)): ≤ 28.7 ×10⁻⁶ cm/s
- Papp at 5 h ([4]; slight decrease upon growing HP-β-CD concentration in donor solution (lowest value reached)): ≥ 17.8 ×10⁻⁶ cm/s
- Molar solubility S2 × 10^3 in n-Hexane [5]: 0.72 ± 0.01 × 10^3 (M)
- Molar solubility S2 × 10^1 in 1-Octanol [6]: 4.09 ± 0.08 × 10^1 (M)
Structure (SMILES): CC(C)NNC(=O)c1ccncc1 [IPN, N′-isopropyl isonicotinic hydrazide]
